Counter-ions that a name gives are not always drawn.

For orientation: EC50 means the midpoint of the concentration-response curve.

T1 sequence (O14744 whole entry): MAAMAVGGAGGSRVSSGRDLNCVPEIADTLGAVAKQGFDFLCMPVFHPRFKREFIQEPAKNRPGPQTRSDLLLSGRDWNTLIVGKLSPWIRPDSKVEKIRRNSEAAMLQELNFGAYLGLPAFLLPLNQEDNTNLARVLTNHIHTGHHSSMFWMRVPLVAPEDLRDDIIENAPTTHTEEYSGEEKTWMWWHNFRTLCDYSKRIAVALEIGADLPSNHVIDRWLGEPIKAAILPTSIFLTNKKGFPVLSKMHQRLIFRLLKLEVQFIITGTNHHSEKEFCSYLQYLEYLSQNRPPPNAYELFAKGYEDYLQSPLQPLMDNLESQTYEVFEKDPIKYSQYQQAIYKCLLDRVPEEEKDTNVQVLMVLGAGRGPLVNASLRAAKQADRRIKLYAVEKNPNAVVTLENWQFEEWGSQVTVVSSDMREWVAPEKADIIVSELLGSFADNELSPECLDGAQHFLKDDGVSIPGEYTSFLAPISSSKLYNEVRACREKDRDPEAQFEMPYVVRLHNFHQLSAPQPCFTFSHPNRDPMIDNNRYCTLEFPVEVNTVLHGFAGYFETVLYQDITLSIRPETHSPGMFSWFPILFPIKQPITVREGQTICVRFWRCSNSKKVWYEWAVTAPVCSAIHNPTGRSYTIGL
T1 sequence (Q9BQA1 whole entry partner): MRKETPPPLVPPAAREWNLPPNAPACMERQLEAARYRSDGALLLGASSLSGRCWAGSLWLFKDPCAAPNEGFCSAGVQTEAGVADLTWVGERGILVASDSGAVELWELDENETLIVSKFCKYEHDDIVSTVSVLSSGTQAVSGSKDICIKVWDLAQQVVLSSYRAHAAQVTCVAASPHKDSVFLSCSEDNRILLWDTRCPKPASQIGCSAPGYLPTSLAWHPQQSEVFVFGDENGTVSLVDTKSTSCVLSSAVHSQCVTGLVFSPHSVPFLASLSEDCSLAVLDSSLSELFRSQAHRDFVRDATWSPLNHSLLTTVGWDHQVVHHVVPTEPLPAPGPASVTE

One experiment concerns the target T1, Full-length (FL)-PRMT5-MEP50 enzyme complex (Homo sapiens, UniProt O14744).
T1 construct: Full-length (FL)-PRMT5-MEP50 enzyme complex (recombinant proteins from baculovirus-transfected Sf21 cells: FL-PRMT5; MW=73837 kDa and FL-MEP50; MW=38614); made in house; host or cells: baculovirus-transfected Sf21 insect cells
The experiment is described as follows: PRMT5-MEP50 Enzyme Methylation Assay. The class given is biochemical. To be noted: one EC50: 4 parameters single site sigmoidal model; EC50 1: first value of 7 parameters biphasic model; 1.0 nM PRMT5-MEP50, 75 nM biotinylated peptide, 15 μM SAM; read-out: Enzyme Methylation Assay (EC50 or EC50 1). The method, then:
PRMT5-MEP50 biochemical assay is a direct measurement of the methylation activity of the enzyme complex on a short peptide substrate derived from the N-terminus of H4 histone. Methylation experiment is performed with recombinant PRMT5-MEP50 protein complex. The assessment of inhibitory effect of small molecules is measured by the effectiveness of the compounds to inhibit this reaction (EC50).
In this assay, the potency (EC50) of each compound was determined from a twenty-point (1:2 serial dilution; top compound concentration of 100000 nM) titration curve using the following outlined procedure. To each well of a white ProxiPlus 384 well-plate, 100 nL of compound (1% DMSO in final assay volume of 10 μL) was dispensed, followed by the addition of 8 μL of 1× assay buffer (50 mM Bicine pH 8.0, 1 mM DTT, 0.004% Tween20, 0.01% BSA) containing 1.25 nM of Full-length (FL)-PRMT5-MEP50 enzyme complex (recombinant proteins from baculovirus-transfected Sf21 cells: FL-PRMT5; MW=[…] and FL-MEP50; MW=38614) and 1 μL of 150 μM S-(5′-Adenosyl)-L-Methionine Chloride (SAM). Plates were sealed and placed in a 37° C. humidified chamber for a 60 minutes pre-incubation with compound. Subsequently, each reaction was initiated by the addition of 1 μL 1× assay buffer containing 750 nM biotinylated H4R3(Mel) peptide. The final reaction in each well of 10 μL consists of 1.0 nM PRMT5-MEP50, 75 nM biotinylated-peptide, and 15 μM SAM. Methylation reactions proceeded for 150 minutes in a sealed plate at 37° C. Reactions were immediately quenched by the addition of 1 μL of 5% formic acid. Plates were then frozen and shipped to SAMDI™ Tech Inc. to determine the percent conversion from H4R3(Mel) to H4R3(Me2). Dose-response curves were generated by plotting percent effect (% product conversion; Y-axis) vs. Log 10 compound concentrations (X-axis). EC50 values were determined by non-linear regression according to models for either sigmoidal (4 parameters) or biphasic (7 parameters) dose-response curves.
On to `Cc1ncnc2c1ccn2[C@@H]1C[C@@H]2[C@H](Cc3ccc4cc(Br)c(N)nc4c3)CC[C@]2(O)[C@H]1O` [Example 19, (1S,2R,3aR,4S,6aR)-4-((2-amino-3-bromoquinolin-7-yl)methyl)-2-(4-methyl-7H-pyrrolo[2,3-d]pyrimidin-7-yl)hexahydropentalene-1,6a(1H)-diol], for which the EC50 stood at 0.4 nM.
`Nc1nc2c(F)c(C[C@@H]3CC[C@@]4(O)[C@@H]3O[C@@H](n3ccc5c(N)ncnc53)[C@@H]4O)ccc2cc1F` [Example 20, (2R,3R,3aS,6S,6aR)-6-[(2-amino-3,8-difluoroquinolin-7-yl)methyl]-2-(4-amino-7H-pyrrolo[2,3-d]pyrimidin-7-yl)hexahydro-3aH-cyclopenta[b]furan-3,3a-diol]: the EC50 was determined as 0.5 nM.
Same read-out and setting: in the case of `Nc1nc2cc(C[C@@H]3CC[C@@]4(O)[C@@H]3O[C@@H](n3ccc5c(N)ncnc53)[C@@H]4O)cc(F)c2cc1Cl` [Example 21, (2R,3R,3aS,6S,6aR)-6-[(2-amino-3-chloro-5-fluoroquinolin-7-yl)methyl]-2-(4-amino-7H-pyrrolo[2,3-d]pyrimidin-7-yl)hexahydro-3aH-cyclopenta[b]furan-3,3a-diol] it was 0.8 nM; in that of `Cc1ncnc2c1ccn2[C@@H]1O[C@@H]2[C@H](Cc3ccc4cc(Cl)c(N)nc4c3F)CC[C@]2(O)[C@H]1O` [Example 22, (2R,3R,3aS,6S,6aR)-6-[(2-amino-3-chloro-8-fluoroquinolin-7-yl)methyl]-2-(4-methyl-7H-pyrrolo[2,3-d]pyrimidin-7-yl)hexahydro-3aH-cyclopenta[b]furan-3,3a-diol], 1 nM.
On the same count and under the same terms, the result for `Cc1ncnc2c1ccn2[C@@H]1O[C@@H]2[C@H](Cc3ccc4cc(C(F)F)c(N)nc4c3)CC[C@]2(O)[C@H]1O` [Example 23, (2R,3R,3aS,6S,6aR)-6-((2-amino-3-(difluoromethyl)quinolin-7-yl)methyl)-2-(4-methyl-7H-pyrrolo[2,3-d]pyrimidin-7-yl)hexahydro-3aH-cyclopenta[b]furan-3,3a-diol] reads 0.4 nM; that for `Nc1nc2cc(C[C@@H]3CC[C@@]4(O)[C@@H]3O[C@@H](n3cc(F)c5c(N)ncnc53)[C@@H]4O)cc(F)c2cc1F` [Example 24, (2R,3R,3aS,6S,6aR)-6-((2-amino-3,5-difluoroquinolin-7-yl)methyl)-2-(4-amino-5-fluoro-7H-pyrrolo[2,3-d]pyrimidin-7-yl)hexahydro-3aH-cyclopenta[b]furan-3,3a-diol], 0.4 nM.
Turning to `Cc1ncnc2c1ccn2[C@@H]1O[C@@H]2[C@H](Cc3cnc4cc(F)c(N)nc4c3)CC[C@]2(O)[C@H]1O` [Example 25, (2R,3R,3aS,6S,6aR)-6-((6-amino-7-fluoro-1,5-naphthyridin-3-yl)methyl)-2-(4-methyl-7H-pyrrolo[2,3-d]pyrimidin-7-yl)hexahydro-3aH-cyclopenta[b]furan-3,3a-diol, 3HCl], the EC50 stood at 11 nM.
Same read-out and setting: in the case of `Nc1nc2c(F)c(C[C@@H]3CC[C@@]4(O)[C@@H]3O[C@@H](n3ccc5c(N)ncnc53)[C@@H]4O)ccc2cc1Cl` [Example 26, (2R,3R,3aS,6S,6aR)-6-((2-amino-3-chloro-8-fluoroquinolin-7-yl)methyl)-2-(4-amino-7H-pyrrolo[2,3-d]pyrimidin-7-yl)hexahydro-3aH-cyclopenta[b]furan-3,3a-diol] it was 1.1 nM.
Still for that read-out and setting: in the case of `Nc1nc2cc(C[C@@H]3CC[C@@]4(O)[C@@H]3O[C@@H](n3ccc5c(N)ncnc53)[C@@H]4O)c(F)cc2cc1F` [Example 27, (2R,3R,3aS,6S,6aR)-6-[(2-amino-3,6-difluoroquinolin-7-yl)methyl]-2-(4-amino-7H-pyrrolo[2,3-d]pyrimidin-7-yl)hexahydro-3aH-cyclopenta[b]furan-3,3a-diol] it was 0.4 nM; in that of `Nc1nc2nc(C[C@@H]3CC[C@@]4(O)[C@@H]3O[C@@H](n3ccc5c(N)ncnc53)[C@@H]4O)ccc2cc1Cl` [Example 28, (2R,3R,3aS,6S,6aR)-6-((7-amino-6-chloro-1,8-naphthyridin-2-yl)methyl)-2-(4-amino-7H-pyrrolo[2,3-d]pyrimidin-7-yl)hexahydro-3aH-cyclopenta[b]furan-3,3a-diol trihydrochloride], 0.8 nM.
On the same count and under the same terms, the result for `Nc1nc2cc(C[C@@H]3CC[C@@]4(O)[C@@H]3O[C@@H](n3ccc5c(N)ncnc53)[C@@H]4O)cc(F)c2cc1F` [Example 29, (2R,3R,3aS,6S,6aR)-6-[(2-amino-3,5-difluoroquinolin-7-yl)methyl]-2-(4-amino-7H-pyrrolo[2,3-d]pyrimidin-7-yl)hexahydro-3aH-cyclopenta[b]furan-3,3a-diol] reads 0.3 nM; that for `Nc1nc2cc(C[C@@H]3CC[C@@]4(O)[C@@H]3C[C@@H](n3cc(F)c5c(N)ncnc53)[C@@H]4O)cc(F)c2cc1F` [Example 30, (1S,2R,3aR,4S,6aR)-4-((2-amino-3,5-difluoroquinolin-7-yl)methyl)-2-(4-amino-5-fluoro-7H-pyrrolo[2,3-d]pyrimidin-7-yl)hexahydropentalene-1,6a(1H)-diol], 0.7 nM.
Take `Cc1nc(N)c2ccn([C@@H]3C[C@@H]4[C@H](Cc5ccc6cc(Cl)c(N)nc6c5)CC[C@]4(O)[C@H]3O)c2n1` [Example 31, (1S,2R,3aR,4S,6aR)-2-(4-amino-2-methyl-7H-pyrrolo[2,3-d]pyrimidin-7-yl)-4-((2-amino-3-chloroquinolin-7-yl)methyl)hexahydropentalene-1,6a(1H)-diol 2,2,2-trifluoroacetate]: the EC50 came to 0.4 nM.
For the compound `Cc1nc(N)c2ccn([C@@H]3C[C@@H]4[C@H](Cc5ccc6cc(F)c(N)nc6c5)CC[C@]4(O)[C@H]3O)c2n1` [Example 32, (1S,2R,3aR,4S,6aR)-2-(4-amino-2-methyl-7H-pyrrolo[2,3-d]pyrimidin-7-yl)-4-((2-amino-3-fluoroquinolin-7-yl)methyl)hexahydropentalene-1,6a(1H)-diol 2,2,2-trifluoroacetate], the EC50 came to 0.4 nM.
Consider `Nc1nc2cc(C[C@@H]3CC[C@@]4(O)[C@@H]3C[C@@H](n3cc(F)c5c(N)ncnc53)[C@@H]4O)ccc2cc1F` [Example 33, (1S,2R,3aR,4S,6aR)-4-((2-amino-3-fluoroquinolin-7-yl)methyl)-2-(4-amino-5-fluoro-7H-pyrrolo[2,3-d]pyrimidin-7-yl)hexahydropentalene-1,6a(1H)-diol], for which the EC50 is 0.6 nM.
`Nc1nc2cc(C[C@@H]3CC[C@@]4(O)[C@@H]3C[C@@H](n3cc(F)c5c(N)ncnc53)[C@@H]4O)ccc2cc1Cl` [Example 34, (1S,2R,3aR,4S,6aR)-4-((2-amino-3-chloroquinolin-7-yl)methyl)-2-(4-amino-5-fluoro-7H-pyrrolo[2,3-d]pyrimidin-7-yl)hexahydropentalene-1,6a(1H)-diol]: the EC50 was determined as 0.3 nM.
Still for that read-out and setting: in the case of `Cc1cn([C@@H]2C[C@@H]3[C@H](Cc4cc(F)c5cc(F)c(N)nc5c4)CC[C@]3(O)[C@H]2O)c2ncnc(N)c12` [Example 35, (1S,2R,3aR,4S,6aR)-4-[(2-amino-3,5-difluoroquinolin-7-yl)methyl]-2-(4-amino-5-methyl-7H-pyrrolo[2,3-d]pyrimidin-7-yl)hexahydropentalene-1,6a(1H)-diol] it was 0.5 nM; in that of `Cc1cn([C@@H]2C[C@@H]3[C@H](Cc4cc(F)c5cc(Cl)c(N)nc5c4)CC[C@]3(O)[C@H]2O)c2ncnc(N)c12` [Example 36, (1S,2R,3aR,4S,6aR)-4-[(2-amino-3-chloro-5-fluoroquinolin-7-yl)methyl]-2-(4-amino-5-methyl-7H-pyrrolo[2,3-d]pyrimidin-7-yl)hexahydropentalene-1,6a(1H)-diol], 0.5 nM.
As to `Cc1nc(N)c2ccn([C@@H]3C[C@@H]4[C@H](Cc5ccc6cc(Br)c(N)nc6c5)CC[C@]4(O)[C@H]3O)c2n1` [Example 37, (1S,2R,3aR,4S,6aR)-2-(4-amino-2-methyl-7H-pyrrolo[2,3-d]pyrimidin-7-yl)-4-((2-amino-3-bromoquinolin-7-yl)methyl)hexahydropentalene-1,6a(1H)-diol], the EC50 amounted to 0.3 nM.
With `Cc1cn([C@@H]2C[C@@H]3[C@H](Cc4ccc5cc(F)c(N)nc5c4)CC[C@]3(O)[C@H]2O)c2ncnc(N)c12` [Example 38, (1S,2R,3aR,4S,6aR)-4-((2-amino-3-fluoroquinolin-7-yl)methyl)-2-(4-amino-5-methyl-7H-pyrrolo[2,3-d]pyrimidin-7-yl)hexahydropentalene-1,6a(1H)-diol], the EC50 stood at 0.3 nM.

The same experiment, now with this note: second EC50 of 7 parameters biphasic model; 1.0 nM PRMT5-MEP50, 75 nM biotinylated peptide, 15 μM SAM; read-out: Enzyme Methylation Assay (EC50 2).
`Cc1ncnc2c1ccn2[C@@H]1O[C@@H]2[C@H](Cc3cnc4cc(F)c(N)nc4c3)CC[C@]2(O)[C@H]1O` [Example 25, (2R,3R,3aS,6S,6aR)-6-((6-amino-7-fluoro-1,5-naphthyridin-3-yl)methyl)-2-(4-methyl-7H-pyrrolo[2,3-d]pyrimidin-7-yl)hexahydro-3aH-cyclopenta[b]furan-3,3a-diol, 3HCl]: the EC50 was 8910 nM.
